≈ marks a conversion by molar mass, not a printed value. Like-named read-outs stand apart in the source and are kept apart here.
How the values were obtained:
Assay in all cases: MIC, broth microdilution
E. coli GC 4559 = conditions: Escherichia coli
E. faecium GC 4556 = conditions: Enterococcus faecium
S. epidermidis GC 4935 = conditions: Staphylococcus epidermidis
E. coli GC 2235 = conditions: Escherichia coli
P. aeruginosa GC 2214 = conditions: Pseudomonas aeruginosa
E. coli GC 2270 = conditions: Escherichia coli
S. aureus GC 1079 = conditions: Staphylococcus aureus
E. coli GC 2233 = conditions: Escherichia coli
E. faecalis GC 2242 = conditions: Enterococcus faecalis
S. pneumoniae+ GC 4465 = conditions: Streptococcus pneumoniae
S. aureus GC 2216 = conditions: Staphylococcus aureus
E. coli GC 2236 = conditions: Escherichia coli
E. coli GC 1073 = conditions: Escherichia coli
S. aureus GC 6335 = conditions: Staphylococcus aureus
S. pyogenes GC 4563 = conditions: Streptococcus pyogenes
Method: Antimicrobial susceptibility testing. The in vitro activities of the antibiotics are determined by the broth microdilution method as recommended by the National Committee for Clinical Laboratory Standards (NCCLS) (1). Mueller-Hinton II broth (MHBII)(BBL Cockeysville, Md.) is the medium employed in the testing procedures. Microtiter plates containing serial dilutions of each antimicrobial agent are inoculated with each organism to yield the appropriate density (10^5 CFU/ml) in a 100 μl final volume. The plates are incubated for 18-22 hours at 35° C. in ambient air. […] Standard Pharmacological Test Procedures
Presented in Tables I-XIII are representative compounds of Formula I which were evaluated against a panel of 40 selected gram-positive and gram-negative bacteria strains by pre-incubation in water, mouse serum or human serum. Representative compounds were first incubated in mouse serum for an hour prior to the in vitro testing against a panel of selected gram-positive and gram-negative bacteria strains. All compounds were also pre-incubated in water for an hour prior to testing as control. Representative compounds of Formula I were incubated in human serum prior to MIC determination.

E. coli GC 2271 = conditions: Escherichia coli
c. albicans GC 3066 = test system: c. albicans GC 3066
E. coli GC 2234 = conditions: Escherichia coli
Method: Antimicrobial susceptibility testing. The in vitro activities of the antibiotics are determined by the broth microdilution method as recommended by the National Committee for Clinical Laboratory Standards (NCCLS) (1). Mueller-Hinton II broth (MHBII)(BBL Cockeysville, Md.) is the medium employed in the testing procedures. Microtiter plates containing serial dilutions of each antimicrobial agent are inoculated with each organism to yield the appropriate density (10^5 CFU/ml) in a 100 μl final volume. The plates are incubated for 18-22 hours at 35° C. in ambient air.
Representative compounds were first incubated in mouse serum for an hour prior to the in vitro testing against a panel of selected gram-positive and gram-negative bacteria strains. All compounds were also pre-incubated in water for an hour prior to testing as control.

S. aureus GC 1131 = conditions: Staphylococcus aureus

CCCCOC(=O)N(CC(=O)Nc1cc(N(C)C)c2c(c1O)C(=O)C1=C(O)[C@]3(O)C(=O)C(C(N)=O)=C(O)[C@@H](N(C)C)[C@@H]3C[C@@H]1C2)C(C)(C)C [Example 58, butyl 2-{[(5aR,6aS,7S,10aS)-9-(aminocarbonyl)-4,7-bis(dimethylamino)-1,8,10a,11-tetrahydroxy-10,12-dioxo-5,5a,6,6a,7,10,10a,12-octahydrotetracen-2-yl]amino}-2-oxoethyl(tert-butyl)carbamate] was tested, and the MIC (E. coli GC 4559; GC4559, read-out: MINIMAL INHIBITORY CONCENTRATION MIC, Human Serum) was > 64 µg/mL, the MIC (E. coli GC 4559; GC4559, read-out: MINIMAL INHIBITORY CONCENTRATION MIC, Mouse Serum) was > 64 µg/mL and the MIC (E. coli GC 4559; GC4559, read-out: MINIMAL INHIBITORY CONCENTRATION MIC, Water) was > 64 µg/mL. For the same compound, the MIC (E. faecium GC 4556; GC4556, read-out: MINIMAL INHIBITORY CONCENTRATION MIC, Human Serum) was 4 µg/mL (≈ 5.83 µM), the MIC (E. faecium GC 4556; GC4556, read-out: MINIMAL INHIBITORY CONCENTRATION MIC, Mouse Serum) was 2 µg/mL (≈ 2.92 µM) and the MIC (E. faecium GC 4556; GC4556, read-out: MINIMAL INHIBITORY CONCENTRATION MIC, Water) was 4 µg/mL (≈ 5.83 µM). For the same compound, the MIC (S. epidermidis GC 4935; GC4935, read-out: MINIMAL INHIBITORY CONCENTRATION MIC, Human Serum) was 4 µg/mL (≈ 5.83 µM), the MIC (S. epidermidis GC 4935; GC4935, read-out: MINIMAL INHIBITORY CONCENTRATION MIC, Mouse Serum) was 4 µg/mL (≈ 5.83 µM) and the MIC (S. epidermidis GC 4935; GC4935, read-out: MINIMAL INHIBITORY CONCENTRATION MIC, Water) was 8 µg/mL (≈ 11.7 µM). For the same compound, the MIC (E. coli GC 2235; GC2235, read-out: MINIMAL INHIBITORY CONCENTRATION MIC, Human Serum) was > 64 µg/mL, the MIC (E. coli GC 2235; GC2235, read-out: MINIMAL INHIBITORY CONCENTRATION MIC, Mouse Serum) was > 64 µg/mL and the MIC (E. coli GC 2235; GC2235, read-out: MINIMAL INHIBITORY CONCENTRATION MIC, Water) was > 64 µg/mL. For the same compound, the MIC (P. aeruginosa GC 2214; GC2214, read-out: MINIMAL INHIBITORY CONCENTRATION MIC, Human Serum) was > 64 µg/mL, the MIC (P. aeruginosa GC 2214; GC2214, read-out: MINIMAL INHIBITORY CONCENTRATION MIC, Mouse Serum) was > 64 µg/mL and the MIC (P. aeruginosa GC 2214; GC2214, read-out: MINIMAL INHIBITORY CONCENTRATION MIC, Water) was > 64 µg/mL. The MIC (E. coli GC 2270; GC2270, read-out: MINIMAL INHIBITORY CONCENTRATION MIC, Human Serum) was > 64 µg/mL, the MIC (E. coli GC 2270; GC2270, read-out: MINIMAL INHIBITORY CONCENTRATION MIC, Mouse Serum) was > 64 µg/mL and the MIC (E. coli GC 2270; GC2270, read-out: MINIMAL INHIBITORY CONCENTRATION MIC, Water) was > 64 µg/mL. For the same compound, the MIC (S. aureus GC 1079; GC1079, read-out: MINIMAL INHIBITORY CONCENTRATION MIC, Human Serum) was 4 µg/mL (≈ 5.83 µM), the MIC (S. aureus GC 1079; GC1079, read-out: MINIMAL INHIBITORY CONCENTRATION MIC, Mouse Serum) was 2 µg/mL (≈ 2.92 µM) and the MIC (S. aureus GC 1079; GC1079, read-out: MINIMAL INHIBITORY CONCENTRATION MIC, Water) was 8 µg/mL (≈ 11.7 µM). The MIC (E. coli GC 2233; GC2233, read-out: MINIMAL INHIBITORY CONCENTRATION MIC, Human Serum) was > 64 µg/mL, the MIC (E. coli GC 2233; GC2233, read-out: MINIMAL INHIBITORY CONCENTRATION MIC, Mouse Serum) was > 64 µg/mL and the MIC (E. coli GC 2233; GC2233, read-out: MINIMAL INHIBITORY CONCENTRATION MIC, Water) was > 64 µg/mL. It also gave an MIC (E. faecalis GC 2242; GC2242, read-out: MINIMAL INHIBITORY CONCENTRATION MIC, Human Serum) of 4 µg/mL (≈ 5.83 µM), an MIC (E. faecalis GC 2242; GC2242, read-out: MINIMAL INHIBITORY CONCENTRATION MIC, Mouse Serum) of 2 µg/mL (≈ 2.92 µM) and an MIC (E. faecalis GC 2242; GC2242, read-out: MINIMAL INHIBITORY CONCENTRATION MIC, Water) of 4 µg/mL (≈ 5.83 µM). The MIC (S. pneumoniae+ GC 4465; read-out: MINIMAL INHIBITORY CONCENTRATION MIC, Human Serum) was 4 µg/mL (≈ 5.83 µM), the MIC (S. pneumoniae+ GC 4465; read-out: MINIMAL INHIBITORY CONCENTRATION MIC, Mouse Serum) was 4 µg/mL (≈ 5.83 µM) and the MIC (S. pneumoniae+ GC 4465; read-out: MINIMAL INHIBITORY CONCENTRATION MIC, Water) was 8 µg/mL (≈ 11.7 µM). The MIC (S. aureus GC 2216; GC2216, read-out: MINIMAL INHIBITORY CONCENTRATION MIC, Human Serum) was 4 µg/mL (≈ 5.83 µM), the MIC (S. aureus GC 2216; GC2216, read-out: MINIMAL INHIBITORY CONCENTRATION MIC, Mouse Serum) was 2 µg/mL (≈ 2.92 µM) and the MIC (S. aureus GC 2216; GC2216, read-out: MINIMAL INHIBITORY CONCENTRATION MIC, Water) was 4 µg/mL (≈ 5.83 µM). The MIC (E. coli GC 2236; GC2236, read-out: MINIMAL INHIBITORY CONCENTRATION MIC, Human Serum) was > 64 µg/mL, the MIC (E. coli GC 2236; GC2236, read-out: MINIMAL INHIBITORY CONCENTRATION MIC, Mouse Serum) was > 64 µg/mL and the MIC (E. coli GC 2236; GC2236, read-out: MINIMAL INHIBITORY CONCENTRATION MIC, Water) was > 64 µg/mL. The MIC (E. coli GC 1073; GC1073, read-out: MINIMAL INHIBITORY CONCENTRATION MIC, Human Serum) was > 64 µg/mL, the MIC (E. coli GC 1073; GC1073, read-out: MINIMAL INHIBITORY CONCENTRATION MIC, Mouse Serum) was > 64 µg/mL and the MIC (E. coli GC 1073; GC1073, read-out: MINIMAL INHIBITORY CONCENTRATION MIC, Water) was > 64 µg/mL. The MIC (S. aureus GC 6335; GC6335, read-out: MINIMAL INHIBITORY CONCENTRATION MIC, Human Serum) was 4 µg/mL (≈ 5.83 µM), the MIC (S. aureus GC 6335; GC6335, read-out: MINIMAL INHIBITORY CONCENTRATION MIC, Mouse Serum) was 4 µg/mL (≈ 5.83 µM) and the MIC (S. aureus GC 6335; GC6335, read-out: MINIMAL INHIBITORY CONCENTRATION MIC, Water) was 4 µg/mL (≈ 5.83 µM). It also gave an MIC (S. pyogenes GC 4563; GC4563, read-out: MINIMAL INHIBITORY CONCENTRATION MIC, Human Serum) of 4 µg/mL (≈ 5.83 µM), an MIC (S. pyogenes GC 4563; GC4563, read-out: MINIMAL INHIBITORY CONCENTRATION MIC, Mouse Serum) of 4 µg/mL (≈ 5.83 µM) and an MIC (S. pyogenes GC 4563; GC4563, read-out: MINIMAL INHIBITORY CONCENTRATION MIC, Water) of 4 µg/mL (≈ 5.83 µM). For the same compound, the MIC (E. coli GC 2271; GC2271, read-out: MINIMAL INHIBITORY CONCENTRATION MIC, Human Serum) was > 64 µg/mL, the MIC (E. coli GC 2271; GC2271, read-out: MINIMAL INHIBITORY CONCENTRATION MIC, Mouse Serum) was > 64 µg/mL and the MIC (E. coli GC 2271; GC2271, read-out: MINIMAL INHIBITORY CONCENTRATION MIC, Water) was > 64 µg/mL. For the same compound, the MIC (c. albicans GC 3066; Candida albicans, GC3066, read-out: MINIMAL INHIBITORY CONCENTRATION MIC) was > 64 µg/mL, the “MINIMAL INHIBITORY CONCENTRATION MIC” value (c. albicans GC 3066; Human Serum) was >64 UG/ML and the “MINIMAL INHIBITORY CONCENTRATION MIC” value (c. albicans GC 3066; Mouse Serum) was >64 UG/ML. The MIC (E. coli GC 2234; GC2234, read-out: MINIMAL INHIBITORY CONCENTRATION MIC, Human Serum) was > 64 µg/mL, the MIC (E. coli GC 2234; GC2234, read-out: MINIMAL INHIBITORY CONCENTRATION MIC, Mouse Serum) was > 64 µg/mL and the MIC (E. coli GC 2234; GC2234, read-out: MINIMAL INHIBITORY CONCENTRATION MIC, Water) was > 64 µg/mL. The MIC (S. aureus GC 1131; GC1131, read-out: MINIMAL INHIBITORY CONCENTRATION MIC, Human Serum) was 4 µg/mL (≈ 5.83 µM), the MIC (S. aureus GC 1131; GC1131, read-out: MINIMAL INHIBITORY CONCENTRATION MIC, Mouse Serum) was 2 µg/mL (≈ 2.92 µM) and the MIC (S. aureus GC 1131; GC1131, read-out: MINIMAL INHIBITORY CONCENTRATION MIC, Water) was 4 µg/mL (≈ 5.83 µM).

From patent US20070049564A1 (Wyeth, priority 2005, published 2007)
